Assay results published in US6369109B1, “Betulinic acid and derivatives thereof useful for the treatment of neuroectodermal tumor” (Deutsches Krebsforschungszentrum Stiftung des Offentlichen …, priority 1998, dated 2002).

Legend:
Type in all cases: cell-based, human
[1] = test system: CD95-L mRNA in SH-EP neuroblastoma cells; experiment: CD95-L mRNA expression by RT-PCR; details: 5 and 10 μg/ml betulinic acid; 0.5 μg/ml doxorubicin 24 h; FIG. 3A
Protocol: Total RNA was prepared using the Qiagen total RNA kit (Qiagen, Hilden, Germany). RNA was converted to cDNA by reverse transcription and amplified for 38 cycles by PCR in a thermocycler (Stratagene, Heidelberg, Germany) using the Gene Amplification RNA-PCR kit (Perkin-Elmer, Branchburg, N.J.) following the manufacturer's instructions. Primers used for amplification of the CD95-L fragment are according to the sequence of human CD95-L (Suda et al., 1995, Cell 75:1169-1178; Herr et al., 1996, Cell Death Diff., 5:299-305). Expression of β-actin (MWG-Biotech, Ebersberg, Germany) was used as an internal standard for RNA integrity and equal gel loading. PCR products were run at 60 V for 2 h on a 1.5% agarose gel stained with ethidium bromide and visualized by UV illumination.
SH-EP neuroblastoma cells were incubated with 5 and 10 μg/ml betulinic acid for the indicated times or with 0.5 μg/ml doxorubicin for 24 h. CD95-L mRNA expression was determined by RT-PCR. Expression of μ-actin was used to control RNA integrity and equal gel loading.

[2] = test system: doxorubicin-resistant SH-EP^DoxoR cells; experiment: Specific apoptosis in resistant cells, FACS of propidium iodide-stained nuclei; details: 10 μg/ml betulinic acid or 0.5 μg/ml doxorubicin, 72 h; FIG. 6A
From the text: (§1) Neuroblastoma (SH-EP, IMR-32, Kelly, and LAN-5, kindly provided by Professor M. Schwab, German Cancer Research Center, Heidelberg, Germany), medulloblastoma cells (Daoy, kindly provided by Dr. T. Pietsch, Department of Neuropathology, University of Bonn Medical Center, Bonn, Germany), Ewing's sarcoma cells (A17/95, kindly provided by Dr. U. Anderer, Institute of Pathology, Humboldt University, Berlin, Germany), melanoma (A-378), breast carcinoma (MCF-71), colon carcinoma (HT-29), small cell lung carcinoma (H-126), renal cell carcinoma (KTCTL-26, kindly provided by H. Lörke, German Cancer Research Center, Heidelberg, Germany) and T-cell leukemia (CEM) cells were cultured in RPMI 1640 (Life Technologies, Inc., Eggenstein, Germany) supplemented with 10% heat-inactivated fetal bovin serum (FCS) from Conco. […]
(§2) Quantification of DNA fragmentation was performed by FACS analysis of propidium iodide stained nuclei as described in Nicoletti et al, 1991, J. Immunol. […] Cells were analyzed for DNA content by flow. cytometry (FACScan, Becton Dickinson, Heidelberg, Germany) using CELLQuest software. […] Cells were analyzed by flow cytometry (FAC-Scan. Becton Dickinson) using CELLQuest software.
(§3) SH-EP neuroblastoma cells (▪). […] Specific apoptosis was determined and calculated as described in the legend to FIG. 1A. […]

[3] = test system: CD95-resistant SH-EP^CD95R cells; experiment: as above; details: 10 μg/ml betulinic acid or 0.5 μg/ml doxorubicin, 72 h; FIG. 6A
From the text: as §1, §2, §3

With `COc1cccc2c1C(=O)c1c(O)c3c(c(O)c1C2=O)C[C@@](O)(C(=O)CO)C[C@@H]3O[C@H]1C[C@H](N)[C@H](O)[C@H](C)O1` [doxorubicin] the “CD95-L mRNA induction” value [1] was “strongly up-regulated CD95-L mRNA”, the “response of doxorubicin-resistant cells (specific apoptosis)” value [2] was “partially resistant to doxorubicin” and the “response of anti-CD95-resistant cells (specific apoptosis)” value [3] was “partially resistant to doxorubicin”.
